Assay results from patent US20170306409A1, “CANCER PATIENT SELECTION FOR ADMINISTRATION OF WNT SIGNALING INHIBITORS USING RNF43 MUTATION STATUS” (NOVARTIS AG, priority 2012, published 2017).

Columns and labels:
[1] = tested on: HPAFII cells; experiment: cell colony formation assay (FIG. 1); assay type: cell-based, human
Description: (§1) FIG. 1(a) is a photograph showing a HPAFII cell colony formation assay in the presence of LGK974 at two concentrations (300 nM and 1 μM). 1300 cells were seeded into media with indicated treatment and the media were replaced every 5 days until crystal violet staining at day 14. […] FIG. 1(b) is a photograph showing PK1 (having a functional RNF43 protein) and HPAFII (having a nonfunctional RNF43 protein) cell colony formation assays in the presence of 1 μM LGK974 alone or together with daily addition of 10% Wnt3a conditioned media (CM).

[2] = tested on: PK1; experiment: cell colony formation assay (FIG. 1); assay type: cell-based, human; settings: PK1 (RNF43 wild-type); 1 μM LGK974; 10 day assay
Description: as §1

[3] = tested on: Capan-2 xenografts; experiment: PDAC xenograft model, in vivo efficacy and pharmacodynamics; parameters: species or system mice
Excerpt: (§2) To analyze the role of Wnt pathway activation in maintenance of RNF43 mutant pancreatic tumors in vivo, we utilized two PDAC xenograft models (HPAFII and Capan-2).
(§3) For in vivo efficacy and pharmacodynamic studies, cells were harvested at a density of 95-110% confluency. 10 million cells (HPAFII) or 3 million cells (Capan-2) mixed 50:50 with BD matrigel matrix basement membrane (Matrigel) (BD Biosciences) were subcutaneously implanted into the upper right supra-axillary region of nu/nu (Harlan) (HPAFII) or scid.bg (Harlan) (Capan-2) mice. Tumors were monitored twice weekly by calipering and tumor volumes (TV) were calculated using the ellipsoid formula: TV(mm^3)=((l×w^2)×3.14159))/6. Xenograft tumor-bearing mice were randomized to treatment groups (n=8 per group) either 14 days post tumor implant (Capan-2), when the mean tumor volume reached 223 mm^3 (range 200-250 mm^3) or 11 days post implant (HPAFII), when the mean tumor volume reached 341 mm^3 (range 272-418 mm^3). Mice were treated by oral gavage (p.o.) twice daily (BID) at a dosing volume of 10 mL/kg with either vehicle (0.5% methylcelluose (MC)/0.5% Tween 80) or a 0.65 mg/mL suspension of the fumarate salt form of LGK974 (LGK974-AE-4, free base molecular weight conversion factor 1.293) in 0.5% MC/0.5% Tween 80. In vivo doses are reported as free base equivalents. Following treatment for 14 days (HPAFII) or 35 days (Capan-2), anti-tumor activity was reported as percent treatment/control (% T/C) or % Regression (% REG) values. Anti-tumor activity was calculated using the following formula: % T/C=100 ΔΔTt/ΔCt if ΔTt≧0; or % REG=100 ΔΔTt/T0 if ΔTt<0; where: T0=mean tumor volume (TV) of the drug-treated group on the day of randomization; Tt=mean TV of the drug-treated group at study end; […]; Ct=mean TV of the control group on the final day of the study; C0=mean TV of the control group on the day of randomization; and ΔCt=C0−Ct*% T/C values in the range of 100 to 42% are interpreted to have no anti-tumor activity; % T/C values 42% and >10% are interpreted to have anti-tumor activity, % T/C values 10% or % REG≧-10% are interpreted to be tumor stasis. % REG values <-10% are interpreted as regressions. Separate, parallel cohorts of animals (n=3 per treatment and time point) were treated with vehicle or LGK974 as above to obtain tumor tissue for ex vivo analysis of pharmacodynamic markers.
(§4) Furthermore, treatment of mice bearing Capan-2 xenografts with 5 mg/kg LGK974, p.o. BID for 35 days achieved tumor stasis (T/C=5%). Consistent with the mechanism of action of LGK974, expression of the β-catenin target gene, AXIN2, was decreased in treated HPAFII and Capan-2 xenografts.

[4] = tested on: HPAFII xenografts; experiment: as above; parameters: species or system mice
Excerpt: as §2, §3, §4

[5] = tested on: Axin2, YAPC; experiment: Axin2 qPCR assay (pathway inhibition); assay type: cell-based, human
Description: For reverse transcription and quantitative PCR (qPCR), total RNA was extracted from cells or tumors using the RNeasy Plus Mini Kit (Qiagen). 1 μg of RNA were reverse transcribed with Taqman Reverse Transcription Reagents (Applied Biosystems) according to the manufacturer's instruction. Quantitative PCR was performed in 12 μl reactions consisting of 0.6 μl of 20× Taqman probe and PCR primer mix, 6 μl 2× Taqman FAST Advanced Master Mix (Applied Biosystems), and 5.4 μl diluted cDNA template. The thermocycling conditions utilized were 20 seconds at 95° C., followed by 40 cycles of 1 second at 95° C. and 20 seconds at 60° C. All experiments were performed in quadruplicates. Gene expression analysis was performed using the comparative ΔΔCT method and normalized with the housekeeping gene GUSB or 18S. The Taqman probes were purchased from Applied Biosystems.
Consistent with this observation, treatment of Porcupine inhibitor IWP2 or LGK974 increased the cell surface level of Frizzled and decreased the mRNA levels of AXIN2 and RNF43. See, FIG. 4(b). […] YAPC cells were treated with 3 μM of IWP-2 or 1 μM of LGK974, and subjected to flowcytometry analysis for membrane Frizzled expression.

[6] = tested on: STF Wnt reporter, YAPC-STF cells; experiment: SuperTOPFlash (STF) luciferase reporter assay; assay type: cell-based, human; settings: absence of exogenous Wnt3a, LGK974 or IWP-2
Description: For the luciferase reporter assay, YAPC-STF reporter cells were transfected with siRNA and treated with Wnt3a conditioned medium or compound where applicable. STF luciferase assays were performed using BrightGlo Luciferase Assay kits (Promega) according to the manufacturer's instructions.
To construct pancreatic cell lines expressing STF reporter, HEK293 cells were grown in medium recommended by ATCC supplemented with 10% FBS. Retrovirus or lentivirus was produced from HEK293 cells by standard virus packaging procedure using FuGENE 6 (Roche) transfection reagent. Pancreatic cell lines expressing STF reporter, RNF43 constructs, or DOX-inducible β-catenin shRNA were generated by viral infection and drug selection.
Depletion of RNF43 induces Dvl phosphorylation and β-catenin stabilization. […] RNF43 siRNA-induced STF activity in the absence of exogenous Wnt3a is inhibited by LGK974 and a previously known Porcupine inhibitor IWP-2. Chen B et al. (2009) Nat. Chem. Biol. 5(2):100-7. See, FIG. 3(b), showing that this activity is dependent on the expression of endogenous Wnt proteins.

Cc1cc(-c2ncc(CC(=O)Nc3ccc(-c4cnccn4)cn3)cc2C)ccn1 [LGK974, 2-[5-methyl-6-(2-methylpyridin-4-yl)pyridin-3-yl]-N-[5-(pyrazin-2-yl)pyridin-2-yl]acetamide]
colony formation ([1]; HPAFII (RNF43 mutant), 1 μM LGK974 alone): inhibited
colony formation ([1]; HPAFII, 300 nM and 1 μM LGK974, crystal violet staining at day 14): inhibits colony formation
colony formation, inhibition with exogenous Wnt3a ([1]; HPAFII, 1 μM LGK974 with daily addition of 10% Wnt3a conditioned media): partially rescued
colony formation [2]: no sensitivity
cell cycle arrest and differentiation within the xenograft tumors ([3]; Capan-2 xenograft tumors): induced cell cycle arrest and differentiation
T/C (tumor stasis) ([3]; mice bearing Capan-2 xenografts, 5 mg/kg p.o. BID for 35 days): 5%
expression of the β-catenin target gene AXIN2 in xenografts ([3]; treated Capan-2 xenografts): decreased
cell cycle arrest and differentiation within the xenograft tumors ([4]; HPAFII xenograft tumors): induced cell cycle arrest and differentiation
T/C (tumor growth in treated relative to vehicle) ([4]; mice bearing HPAFII xenografts, 5 mg/kg p.o. BID for 14 days): 33%
expression of the β-catenin target gene AXIN2 in xenografts ([4]; treated HPAFII xenografts): decreased
Pathway inhibition in Axin2 qPCR assay ([5]; YAPC): Yes
mRNA level of AXIN2 ([5]; YAPC cells, 1 μM of LGK974): decreased
RNF43 siRNA-induced STF activity [6]: inhibited
